Experimental data reported in patent US8119624B2, “Fused phenyl amido heterocyclic compounds” (Pfizer Inc., priority 2006, dated 2012).
Where two headings read alike, the source gives them in different places.

Target: T1, Full-length glucokinase (beta cell isoform) (Homo sapiens, UniProt P35557)
T1 construct: Full-length glucokinase (beta cell isoform) was His-tagged at N-terminus; His tag (N); made in house
T1 sequence (P35557 1-465): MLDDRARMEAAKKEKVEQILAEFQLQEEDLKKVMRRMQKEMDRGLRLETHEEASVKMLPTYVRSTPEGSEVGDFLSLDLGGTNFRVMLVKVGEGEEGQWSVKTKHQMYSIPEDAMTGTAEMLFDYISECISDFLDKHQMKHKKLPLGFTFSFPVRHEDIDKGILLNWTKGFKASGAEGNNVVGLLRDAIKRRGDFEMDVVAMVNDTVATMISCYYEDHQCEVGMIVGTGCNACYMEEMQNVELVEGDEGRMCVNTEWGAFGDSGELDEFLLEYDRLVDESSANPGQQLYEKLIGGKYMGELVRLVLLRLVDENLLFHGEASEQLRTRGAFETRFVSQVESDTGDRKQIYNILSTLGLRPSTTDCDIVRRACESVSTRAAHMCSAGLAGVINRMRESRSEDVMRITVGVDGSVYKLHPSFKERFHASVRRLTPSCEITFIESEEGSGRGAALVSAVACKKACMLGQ
Experiment: Glucokinase biochemical assay (PK/LDH-coupled, NADH depletion at 340 nm): % activation, EC50, % max activation
Details: 5 mM glucose; for activation at 10 µM: read-out: % Activation at 10 uM; for EC50: read-out: EC50; for Emax: read-out: % Max Activation
In short: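 Activation expressed as (Va/Vo−1)×100, where initial rates with and without compound come from NADH depletion at 340 nm over 200–900 s. Enzyme is His-tagged human beta-cell GK, full length, run at room temperature in HEPES buffer with 1 mM ATP and 5 mM glucose. DMSO 1%.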

[1] = 10 uM compound, % Activation=(Va/Vo−1)×100
[2] = compound at 10 uM, 1 mM ATP, room temperature
[3] = fitted maximum activation, 1 mM ATP

Row | SMILES | activation at 10 µM [1] | EC50 (GK activation) | Emax (fitted maximum activation) | also measured
1 | COCc1cc2c(Oc3ccc(S(C)(=O)=O)cc3)cc(C(=O)Nc3cnc(N(C)C)cn3)cc2o1 [Example 311, N-[5-(Dimethylamino)pyrazin-2-yl]-2-(methoxymethyl)-4-[4-(methylsulfonyl)-phenoxy]-1-benzofuran-6-carboxamide] | 106% | 380 nM | 114% | –
2 | COCC1Cc2c(Oc3ccc(C(=O)N(C)C)c(F)c3)cc(C(=O)Nc3ccn(C)n3)cc2O1 (single isomer, unassigned; (+)) [Example 207, (+)-4-(4-Dimethylcarbamoyl-3-fluoro-phenoxy)-2-methoxymethyl-2,3-dihydro-benzofuran-6-carboxylic acid (1-methyl-1H-pyrazol-3-yl)-amide] | – | 950 nM | – | % Activation at 10 uM [1]: 127%; % Max Activation (fitted maximum activation): 142%
3 | CC1(C)Cc2c(Oc3ccc(S(C)(=O)=O)cc3)cc(C(=O)Nc3ccccn3)cc2O1 [Example 19, 4-(4-Methanesulfonyl-phenoxy)-2,2-dimethyl-2,3-dihydro-benzofuran-6-carbo-xylic acid pyridin-2-ylamide] | 139% | 370 nM | 156% | –
4 | Cn1ccc(NC(=O)c2cc(Oc3ccc(C(=O)N4CC(F)C4)nc3)c3c(c2)OC(C)(C)C3)n1 [Example 397, 4-[6-(3-Fluoro-azetidine-1-carbonyl)-pyridin-3-yloxy]-2,2-dimethyl-2,3-dihydro-benzofuran-6-carboxylic acid(1-methyl-1H-pyrazol-3-yl)-amide] | – | – | – | EC50 (1 mM ATP, room temperature): 83 nM; activation at 10 µM [2]: 213%; Emax [3]: 202%
5 | COCC(C)Oc1cc(C(=O)Nc2ccn(C)n2)cc2c1CC(C)(C)O2 (stereo not shown) [Example 84, 4-(2-Methoxy-1-methyl-ethoxy)-2,2-dimethyl-2,3-dihydro-benzofuran-6-carboxylic acid (1-methyl-1H-pyrazol-3-yl)-amide] | 58.4% | > 10000 nM | – | –
6 | Cn1ccc(NC(=O)c2cc(Oc3ccc(C(=O)N4CC(F)(F)C4)c(F)c3)c3c(c2)OC(C)(C)C3)n1 [Example 52, 4-[4-(3,3-Difluoro-azetidine-1-carbonyl)-3-fluoro-phenoxy]-2,2-dimethyl-2,3-dihydro-benzofuran-6-carboxylic acid(1-methyl-1H-pyrazol-3-yl)-amide] | 136% | 280 nM | 151% | –
7 | CCS(=O)(=O)c1ccc(Oc2cc(C(=O)Nc3ccn(C)n3)cc3c2CC(C)(C)O3)cc1 [Example 127, 4-(4-Ethanesulfonyl-phenoxy)-2,2-dimethyl-2,3-dihydro-benzofuran-6-carboxylic acid (1-methyl-1H-pyrazol-3-yl)-amide] | 193% | 66 nM | 165% | –
8 | CN(C)C(=O)c1cc2c(Oc3ccc(S(C)(=O)=O)cc3)cc(C(=O)Nc3ccn(C)n3)cc2o1 [Example 286, N2,N2-Dimethyl-N6-(1-methyl-1H-pyrazol-3-yl)-4-[4-(methylsulfonyl)phenoxy]-1-benzofuran-2,6-dicarboxamide] | 178% | 2600 nM | 224% | –
9 | Cn1ccc(NC(=O)c2cc(Oc3cnc(C(=O)N4CCC4)cn3)c3c(c2)OC(C)(C)C3)n1 [Example 396, 4-[5-(Azetidine-1-carbonyl)-pyrazin-2-yloxy]-2,2-dimethyl-2,3-dihydro-benzofuran-6-carboxylic acid(1-methyl-1H-pyrazol-3-yl)-amide] | – | – | – | EC50 (1 mM ATP, room temperature): 360 nM; activation at 10 µM [2]: 204%; Emax [3]: 212%
10 | Cc1ccc(NC(=O)c2cc(Oc3ccc(S(=O)(=O)N4CCC4)cc3)c3c(c2)OC(C)(C)C3)nc1 [Example 124, 4-[4-(Azetidine-1-sulfonyl)-phenoxy]-2,2-dimethyl-2,3-dihydro-benzofuran-6-carboxylic acid (5-methyl-pyridin-2-yl)-amide] | 156% | 38 nM | 113% | –
11 | Cn1ccc(NC(=O)c2cc(Oc3ccc(C(=O)N4CCC4)nc3)c3c(c2)OC(C)(C)C3)n1 [Example 167, 4-[6-(Azetidine-1-carbonyl)-pyridin-3-yloxy]-2,2-dimethyl-2,3-dihydro-benzofuran-6-carboxylic acid (1-methyl-1H-pyrazol-3-yl)-amide] | 148% | 55.3 nM | 146% | –
12 | COCCN1Cc2c(Oc3ccc(S(C)(=O)=O)cc3)cc(C(=O)Nc3ccn(C)n3)cc2C1=O [Example 388, 2-(2-Methoxyethyl)-N-(1-methyl-1H-pyrazol-3-yl)-7-(4-(methylsulfonyl)-phenoxy)-3-oxoisoindoline-5-carboxamide] | – | – | – | activation at 10 µM [2]: 39.7%
13 | CCn1ncc(NC(=O)c2cc(Oc3ccc(S(C)(=O)=O)cc3)c3c(c2)OC(C)(C)C3)n1 [Example 29, 4-(4-Methanesulfonyl-phenoxy)-2,2-dimethyl-2,3-dihydro-benzofuran-6-carboxylic acid(2-ethyl-2H-[1,2,3]triazol-4-yl)-amide] | 284% | 250 nM | 255% | –
14 | Cc1cc2c(Oc3ccc(S(=O)(=O)N4CCC4)cc3)cc(C(=O)Nc3ccc(CO)cn3)cc2o1 [Example 301, 4-(4-(Azetidin-1-ylsulfonyl)phenoxy)-N-(5-(hydroxymethyl)-pyridin-2-yl)-2-methylbenzofuran-6-carboxamide] | 168% | 150 nM | 137% | –
15 | Cn1ccc(NC(=O)c2cc(OCc3cc(O)nc(C4CC4)n3)c3c(c2)OC(C)(C)C3)n1 [Example 95, 4-(2-Cyclopropyl-6-hydroxy-pyrimidin-4-ylmethoxy)-2,2-dimethyl-2,3-dihydro-benzofuran-6-carboxylic acid (1-methyl-1H-pyrazol-3-yl)-amide] | 143% | 625 nM | 145% | –
16 | Cn1ccc(NC(=O)c2cc(Oc3ccc(S(C)(=O)=O)cc3F)c3c(c2)OC(C)(C)C3)n1 [Example 121, 4-(2-Fluoro-4-methanesulfonyl-phenoxy)-2,2-dimethyl-2,3-dihydro-benzofuran-6-carboxylic acid (1-methyl-1H-pyrazol-3-yl)-amide] | 124% | 500 nM | 152% | –
17 | COCC1(C)Cc2c(Oc3ccc(S(=O)(=O)C4CC4)cc3)cc(C(=O)Nc3cnn(C)n3)cc2O1 (single isomer, unassigned; (+)) [Example 249, (+)-4-(4-Cyclopropanesulfonyl-phenoxy)-2-methoxymethyl-2-methyl-2,3-dihydro-benzofuran-6-carboxylic acid (2-methyl-2H-[1,2,3]triazol-4-yl)-amide] | – | 86 nM | 262% | % Activation at 10 uM [1]: 276%
18 | COc1ccnc(NC(=O)c2cc(Oc3ccc(S(C)(=O)=O)cc3)c3cc(C)oc3c2)c1 [Example 259, N-(4-Methoxypyridin-2-yl)-2-methyl-4-(4-(methylsulfonyl)-phenoxy)-benzofuran-6-carboxamide] | 63.6% | 1000 nM | 60% | –

Continued, in another order:

Row | activation at 10 µM [1] | EC50 (GK activation) | Emax (fitted maximum activation) | SMILES | also measured
19 | 112% | 490 nM | 121% | COCc1cc2c(Oc3ccc(S(C)(=O)=O)cc3)cc(C(=O)Nc3cnc(OC)cn3)cc2o1 [Example 312, 2-(Methoxymethyl)-N-(5-methoxypyrazin-2-yl)-4-[4-(methylsulfonyl)phenoxy]-1-benzofuran-6-carboxamide] | –
20 | 26% | – | – | Cc1ccc(NC(=O)c2cc(Oc3ccc(C(=O)N(C)C)cc3)c3occc3c2)nc1 [Example 335, 7-{4-[(Dimethylamino)carbonyl]phenoxy}-N-(5-methylpyridin-2-yl)-1-benzofuran-5-carboxamide] | –
21 | 32.7% | – | – | CN(C)C(=O)c1ccc(Oc2cc(C(=O)Nc3ccn(C)n3)cc3sccc23)cc1F [Example 357, 4-(4-(Dimethylcarbamoyl)-3-fluorophenoxy)-N-(1-methyl-1H-pyrazol-3-yl)benzo[b]thiophene-6-carboxamide] | –
22 | 41.2% | > 10000 nM | – | Cc1cc2cc(C(=O)Nc3ccn(C)n3)cc(O[C@@H](C)Cc3ccccc3)c2o1 [Example 340, 2-Methyl-7-[(1S)-1-methyl-2-phenylethoxy]-N-(1-methyl-1H-pyrazol-3-yl)-1-benzofuran-5-carboxamide] | –
23 | 131% | 920 nM | 155% | COCc1cc2c(Oc3ccc(S(C)(=O)=O)cc3)cc(C(=O)Nc3cnn(C)n3)cc2o1 [Example 313, 2-(Methoxymethyl)-4-[4-(methylsulfonyl)phenoxy]-N-(2-methyl-2H-1,2,3-triazol-4-yl)-1-benzofuran-6-carboxamide] | –
24 | 76.9% | 2100 nM | 90% | Cc1ccc(NC(=O)c2cc(OC3CN(S(C)(=O)=O)C3)c3cc(C)oc3c2)nc1 [Example 326, 2-Methyl-N-(5-methylpyridin-2-yl)-4-{[1-(methylsulfonyl)-azetidin-3-yl]oxy}-1-benzofuran-6-carboxamide] | –
